These results are taken from PubChem BioAssay (NCI).

Holding throughout (experiment): NCI-60 cell line screen, 48 h
Test [1] deals with CAKI-1 renal.
Test [2] concerns BT-549 breast.
Test [3] has as its system UACC-257 melanoma.
In test [4] the test system is UO-31 renal.
The subject of test [5] is KM12 colon.
Test [6] relates to OVCAR-5 ovarian.
In test [7] the test system is 786-0 renal.
The test system of test [8] is SW-620 colon.
Test [9] deals with A498 renal.
Test [10] deals with HCT-15 colon.
The test system of test [11] is ACHN renal.
Test [12] concerns NCI-H23 lung.
Test [13] relates to NCI-H226 lung.
The test system of test [14] is K-562 leukemia.
The subject of test [15] is LOX IMVI melanoma.
The subject of test [16] is EKVX NSCLC.
Test [17] deals with HT29 colon.

Where “and” joins values, the source holds several entries; their conditions need not be identical. Equal entries are not always repeated.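 Protocol summary: plate cells (96-well), add compound at 5 concentrations, incubate 48 h, interpolate endpoints linearly. GI50 is the concentration that inhibits growth by half. At the TGI there is no net growth.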

With `O=C(NNC(=S)Nc1ccccc1)c1ccccc1Nc1ccccc1C(=O)NNC(=S)Nc1ccccc1`, the TGI in test [1] is greater than 100 µM; in [2] it was 57.7 µM; in test [3] it was 56.7 µM; in [4], 44.6 µM; in [5], greater than 100 µM; in test [6] it was 33.6 µM. Further, the TGI in test [7] was 41.5 µM; in test [8], greater than 100 µM; in [9] it was greater than 100 µM; in test [10], greater than 100 µM; in test [11] it was greater than 100 µM; in test [12] it was 41.5 µM. The TGI was 77.9 µM in test [13]; greater than 100 µM in test [14]; 26 µM in test [15]; 85.3 µM in test [16]; 76.6 µM in test [17].
In the case of `O=C1C(CN2CCCCC2)CCCC1CN1CCCCC1` (configuration not stated), the GI50 in test [1] was 13 µM and 5.2 µM; in test [14] it was 8.04 µM and 3.15 µM. For the same molecule, the TGI in [1] is 26.2 µM and 11.9 µM; in [2], 30.9 µM; in [3] it was 57.9 µM and 31.7 µM; in [4], greater than 68.4 µM; in test [5], greater than 100 µM; in test [6], greater than 100 µM. The TGI in test [7] is 22.3 µM and 15 µM; in test [8], 24.6 µM and 13.7 µM; in test [9], greater than 100 µM; in [10], 28.2 µM and 42.8 µM; in [11] it was 34 µM and 39.3 µM; in test [12] it was > 68.4 µM and 55.8 µM. The TGI in [13] is greater than 100 µM; in test [14] it was 15.8 µM and 25.5 µM; in test [15] it was greater than 57.2 µM; in test [16] it was 38 µM and 39.8 µM; in test [17], 34.2 µM and 40.8 µM.
Consider `CC1OC(OC2C(O[C@H]3CC[C@@]4(C)[C@@H](CC[C@@H]5[C@@H]4CC[C@]4(C)[C@@H]6[C@H](C[C@@H]54)O[C@]4(CC[C@@H](C)CO4)[C@H]6C)C3)OC(CO)C(OC3OC(CO)C(O)C(OC4OCC(O)C(O)C4O)C3OC3OCC(O)C(O)C3O)C2O)C(O)C(O)C1O` (some centres not stated), for which the TGI in [1] came to 2.53 µM; in test [2] it was 2.36 µM; in test [3], 2.34 µM; in test [4] it was 2.44 µM; in [5], 1.92 µM; in test [6] it was 2.42 µM. Also, the TGI stood at 3.02 µM in test [7]; 0.348 µM in [8]; 3.78 µM in test [9]; 2.61 µM in [10]; 2.2 µM in [11]; 2.93 µM in test [12]. In addition, the TGI in [13] was 3.58 µM; in test [14] it was greater than 100 µM; in test [15], 2.91 µM; in test [16], 2.95 µM; in test [17] it was 1.71 µM.
With `COc1cc(CCCOC(=O)/C=C/c2ccc(O)c(O)c2)cc(O)c1O`, the TGI in [1], in test [2], in test [3], in test [4], in test [5] and in [6] was greater than 100 µM each time. Besides, the TGI in test [7] was greater than 100 µM; in test [8] it was 35.9 µM; in test [9], greater than 100 µM; in test [10], greater than 100 µM; in test [11] it was greater than 100 µM; in test [12], greater than 100 µM. Moreover, the TGI in test [13] was greater than 100 µM; in test [14], greater than 100 µM; in test [15], 45.6 µM; in test [16] it was greater than 100 µM; in test [17] it was 98.7 µM.
As for `CC(C)(C)c1nc2c(o1)C(=O)c1ccccc1C2=O`, the TGI in [1] was determined as 6.77 µM; in test [2], 2.84 µM; in test [3], 1.43 µM; in test [4], 6.23 µM; in test [5] it was 6.76 µM; in test [6], 4.85 µM. Moreover, the TGI in [7] came out at 5.51 µM; in test [8] it was 4.4 µM; in test [9] it was 11.5 µM; in [10] it was 6.45 µM; in [11] it was 5.69 µM; in test [12] it was 1.78 µM. Further, the TGI amounted to 6.36 µM in [13]; 13.8 µM in test [14]; 1.94 µM in test [15]; 6.51 µM in test [16]; 10.7 µM in test [17].
With `CC(=O)C(=[N+]=[N-])C(=O)OC(C)(C)C#N`, the TGI in [1], in [2], in test [3], in [4], in test [5] and in test [6] was greater than 10 µM in each case. The TGI in test [7], in test [8], in [9], in test [10], in test [11] and in [12] was greater than 10 µM in each case. In addition, the TGI in [13], in [14], in test [15], in test [16] and in test [17] was greater than 10 µM each time.
As for `S=C(N/N=C(/c1ccccc1)c1ccccn1)Nc1ccccc1Cl`, the TGI in test [1] was 11.5 µM; in test [2] it was 17.3 µM; in test [3], 12.6 µM; in test [4] it was 5.96 µM; in [5] it was 16.2 µM; in test [6], 6.94 µM. Moreover, the TGI came to 13.1 µM in test [7]; 14.8 µM in test [8]; 7.19 µM in test [9]; 7.36 µM in test [10]; 9.46 µM in test [11]; 16.7 µM in test [12]. For the same molecule, the TGI was 2.67 µM in test [13]; greater than 5.82 µM in [14]; 23.3 µM in test [15]; 9.92 µM in [16]; 13.4 µM in test [17].
`Cc1ccc(S(=O)(=O)NN=C2CCCCCCCCCCC2)cc1`: the TGI in test [1], in [2], in [3], in [4], in test [5] and in test [6] was greater than 100 µM throughout. The TGI in test [7], in test [8], in test [9], in test [10], in [11] and in test [12] was greater than 100 µM each time. Besides, the TGI in test [13], in test [14], in test [15], in test [16] and in [17] was greater than 100 µM in each case.
Consider `CSc1nc(-c2cc3c(c(SC)n2)CCCCC3)cc2c1CCCCC2`, for which the TGI in test [1], in [2], in test [3], in test [4], in test [5] and in test [6] was greater than 100 µM in each case. Also, the TGI in test [7], in test [8], in test [9], in test [10], in test [11] and in test [12] was greater than 100 µM each time. Further, the TGI in test [13], in test [14], in test [15], in test [16] and in test [17] was greater than 100 µM each time.
`COc1ccc(N=C(C)c2ccncc2)cc1`: the TGI in [1], in [2], in test [3], in test [4], in test [5] and in test [6] was greater than 100 µM each time. The TGI in [7], in [8], in test [9], in test [10], in [11] and in [12] was greater than 100 µM throughout. Also, the TGI in test [13], in test [14], in test [15], in test [16] and in [17] was greater than 100 µM in each case.
Turning to `CC1=C2C(=O)[C@H]3[C@@H](CC=C4C[C@@H](O)CC[C@@]43C)[C@@H]2CC[C@]12O[C@@H]1C[C@H](C)CN[C@H]1[C@H]2C`, the TGI in [1] was greater than 59.2 µM; in [2], greater than 100 µM; in [3], greater than 71.5 µM; in test [4] it was greater than 54.3 µM; in [5] it was greater than 83.4 µM; in test [6] it was greater than 100 µM. Besides, the TGI is greater than 57.5 µM in test [7]; greater than 79.9 µM in [8]; greater than 57.9 µM in test [9]; greater than 81.3 µM in [10]; greater than 56.3 µM in [11]; greater than 58 µM in [12]. The TGI in test [13] was greater than 61 µM; in test [14], greater than 100 µM; in test [15], greater than 58.2 µM; in [16], greater than 66.7 µM; in test [17], greater than 100 µM.
On to `N#Cc1c(-c2ccc([N+](=O)[O-])cc2)cc(-c2ccc(Nc3ccnc4cc(C(F)(F)F)ccc34)cc2)nc1N`, for which the TGI in test [1] is 41.3 µM; in [2] it was greater than 75.6 µM; in [3] it was greater than 85.2 µM; in test [4] it was 36.5 µM; in test [5] it was greater than 47.9 µM; in [6], greater than 73.8 µM. In addition, the TGI in [7] was 15.6 µM; in test [8], 59.2 µM; in [9], greater than 71.3 µM; in test [10], 23.6 µM; in test [11], greater than 68.8 µM; in test [12], greater than 62.3 µM. The TGI in [13] was greater than 70.1 µM; in test [14], 19.1 µM; in test [15] it was greater than 63.3 µM; in test [16], greater than 93.3 µM; in test [17], 34.2 µM.
For the molecule `CN(C)c1ccc(/C=C(\C#N)C(N)=C(C#N)C#N)cc1`, the TGI in test [1], in test [2], in test [3], in [4], in test [5] and in test [6] was greater than 100 µM each time. In addition, the TGI in test [7], in [8], in test [9], in test [10], in [11] and in test [12] was greater than 100 µM each time. The TGI in [13], in test [14], in test [15], in test [16] and in [17] was greater than 100 µM throughout.
As for `CN(C)CCNc1ccc2c(=O)n(CCN(C)C)c(=O)n3c4ccc([N+](=O)[O-])cc4c(=O)c1c23`, the TGI in [1] amounted to 10.2 µM; in test [2] it was 2.66 µM; in test [3], 4.42 µM; in test [4] it was 4.06 µM; in test [5], 4.95 µM; in test [6], 4.54 µM. Moreover, the TGI in test [7] came to 2.74 µM; in test [8] it was 1.78 µM; in [9], 5.55 µM; in [10] it was 1.49 µM; in [11] it was 3.83 µM; in [12], 0.777 µM. The TGI in test [13] is 4.01 µM; in [14], 1.94 µM; in [15], 1.1 µM; in test [16], 2.83 µM; in test [17], 0.658 µM.
Turning to `COc1ccc(-c2csc(=Nc3ccccc3)n2CC(O)c2ccc([N+](=O)[O-])cc2)cc1` (configuration not stated), the TGI in [1], in [2], in [3], in test [4], in test [5] and in test [6] was greater than 100 µM throughout. Further, the TGI in test [7], in [8], in [9], in test [10], in [11] and in test [12] was greater than 100 µM throughout. Further, the TGI in test [13], in [14], in [15], in test [16] and in test [17] was greater than 100 µM throughout.
